These results are taken from publication PMC12598832, “Synthesis and Anticancer Potential of New Benzimidazole Theranostic” (ChemistryOpen, 2025).

Molecules are shown by their SMILES. Values joined by “and” are separate entries in the source; they are usually repeats but may differ in a detail not shown here. Equal entries are not always repeated. Structures can show the parent of a compound that is named as a salt. Where two headings read alike, the source gives them in different places.

Series [1] deals with T1, SIRT2 human recombinant (Homo sapiens, UniProt Q8IXJ6).
T1 construct: purchased Cayman Chemicals, Ann Arbor 700,280
T1 sequence (Q8IXJ6 1-389): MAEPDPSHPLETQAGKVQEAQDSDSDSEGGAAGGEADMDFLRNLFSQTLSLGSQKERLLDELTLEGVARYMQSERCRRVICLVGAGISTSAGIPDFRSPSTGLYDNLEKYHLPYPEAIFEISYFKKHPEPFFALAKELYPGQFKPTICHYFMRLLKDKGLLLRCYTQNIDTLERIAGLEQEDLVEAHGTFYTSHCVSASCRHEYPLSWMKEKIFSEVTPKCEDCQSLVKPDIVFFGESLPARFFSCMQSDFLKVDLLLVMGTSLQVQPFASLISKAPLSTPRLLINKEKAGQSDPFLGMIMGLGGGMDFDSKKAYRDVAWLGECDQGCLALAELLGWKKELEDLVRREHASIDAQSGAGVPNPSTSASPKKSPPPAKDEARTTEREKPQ
As to the kind of experiment: SIRT2 Direct Fluorescent Screening Assay Kit (Cayman). Format: biochemical. The note with it: for IC50: five concentrations 1-50 μM. The procedure: The SIRT2 inhibitory activity of the compounds was evaluated using the SIRT2 Direct Fluorescent Screening Assay Kit (Cayman Chemicals, Ann Arbor, C/N: 700,280) according to the manufacturer's instructions. The SIRT2 peptide substrate comprised amino acids 317–320 of human p53 conjugated to […] (Gln‐Pro‐Lys‐Lys(ε‐acetyl)‐AMC). […] Subsequently, 50 μl of developer solution (6 μg μl^−1 SIRT2 developer, 2 mM nicotinamide) was added. The mixture was incubated for a further 30 min at room temperature. […] The fluorescence was measured with excitation and emission wavelengths of 355 and 460 nm, respectively, using the Tecan Infinite 200 Pro. The percentage inhibition was determined as the ratio of […] under each experimental condition to that of the control.

For series [2], the system named is HCT116 (colorectal carcinoma) cell line. Nature of the series: MTT cell proliferation assay, HCT116. Type of series: cell-based. The following applies: for IC50: MTT, 72 h, read-out: HCT116 IC50 [μM] ± SEM; for HCT116 Selectivity Index (SI): versus HEK293. In general terms: Tetrazolium dyes change colour on reduction, which living cells bring about.
The subject of series [3] is H314 cell line. Details: method as in ref 28 Khoo et al. The following applies: 24 h treatment; ref 28 Khoo et al.; cited from earlier work.
Series [4] has as its system H103 (oral squamous cell carcinoma, OSCC) cell line. As to the kind of experiment: MTT cell proliferation assay, H103. The note with it: for IC50: MTT, 72 h, read-out: H103 IC50 [μM] ± SEM; for H103 Selectivity Index (SI): versus HEK293. Type of series: cell-based. The text has this:
(§1) The H103 and H314 OSCC cell lines were obtained from the European Collection of Cell Cultures (ECACC). The HCT116 and HEK293 cell lines were obtained from the American Type Culture Collection (Rockville, MD).
(§2) All cell lines were maintained in high‐glucose Dulbecco's Modified Eagle Media (DMEM) (Sigma‐Aldrich, Buchs, Switzerland). The culture media was supplemented with 10% fetal bovine serum (FBS) (TICO, Amsterdam, Netherlands) and 1% penicillin‐streptomycin. Prior to the cell‐based assay, cell lines were incubated at 37 °C in a 5% CO2 humidified atmosphere
(§3) Cells were seeded in 96‐well plates at a density of 5 × 10^3 per well. After 24 h of seeding, the cells were treated with 50 μM of the compounds of interest (final concentration 0.25% DMSO) and allowed to adhere for 72 h at 37 °C in a 5% CO2 humidified atmosphere. The 3‐(4,5‐dimethylthiazol‐2‐yl)‐2,5‐diphenyltetrazolium bromide (MTT) assay was conducted to examine the cell cytotoxicity profiles of the synthesized compounds. Briefly, the treatment media was discarded, and 0.5 mg mL^−1 of MTT was added to each well. The plates were incubated for another 4 h at 37 °C in a 5% CO2 humidified atmosphere. Following the incubation, the medium‐MTT solution was removed, and 100 μL of DMSO was added to dissolve the formazan crystals. The absorbance was measured at 570 nm, with the reference wavelength at 620 nm, using the Tecan Infinite 200 Pro. The experiment was carried out in triplicate.

For series [5], the system named is H314 (OSCC) cell line. Nature of the series: MTT cell proliferation assay, H314. Format: cell-based. The note with it: for IC50: MTT, read-out: H314 IC50 [μM] ± SEM; for IC50 / cytotoxic effect in preliminary screening, H314: 72 h; for H314 Selectivity Index (SI): versus HEK293; for cytotoxic effect in preliminary screening, H314: 50 μM, versus control 0.25% DMSO, ANOVA/Tukey.
Text: as §1, §2
as §3, with “After 24 h of seeding, the cells were treated with 50 μM of the compounds of interest (final concentration 0.25% DMSO) and allowed to adhere for 72 h at 37 °C in a 5% CO2 humidified atmosphere.” left out

The test system of series [6] is HEK293 cells. Nature of the series: MTT cell proliferation assay, HEK293 (noncancerous). Type of series: cell-based, human. The following applies: read-out: HEK293 IC50 [μM] ± SEM.
Text: as §1, §2, §3

Series [7] relates to H103 cell line. More on the design: method as in ref 28 Khoo et al. The note with it: 24 h treatment; ref 28 Khoo et al.; cited from earlier work.
Series [8] is described as follows: Fluorescence properties (molar extinction coefficient, quantum yield, Stokes shift). Format: physicochemical. The procedure:
A series of dilutions of V7 (dissolved in DMSO) was prepared. The absorbance of the solutions at 326 nm was recorded on the UviLine 9400 spectrophotometer using a quartz cuvette (10 × 10 mm). A calibration curve of absorbance against concentration was generated. The molar extinction coefficient was calculated from the gradient of the line of best fit, in accordance with Beer–Lambert's law.
A series of dilutions of V7 (dissolved in DMSO) was prepared. The fluorescence emission peak at each concentration was determined using the Tecan Infinite 200 Pro microplate reader (λex = 326 nm and λem = 492 nm). The […] peak was plotted against the fluorescence emission peak and compared to that of a quinine sulfate standard, which has a known quantum yield.
The quantum yield of V7 was subsequently calculated using the following equation Φ=ΦR(Grad/GradR)(n^2/nr2)
The quinine sulfate reference has a quantum yield of 54.6% when dissolved in 0.5 M H2SO4.^[ [26] ^] The refractive index of 0.5 M H2SO4 is 1.346, while the refractive index of DMSO is 1.479.^[ [27] ^]

On the set-up of series [9]: method as in ref 26 = [26]; 26 W. H. Melhuish , J. Phys. Chem. 1961 , 65 , 229 . The note with it: in 0.5 M H2SO4; cited from earlier work.
For series [10], the system named is H103 (oral squamous cell carcinoma, OSCC) cell line. More on the design: method as in PMID 32904142. The following applies: previous study; cited from earlier work.
The mark [11] stands for this setting: compound 50 μM, preliminary screening, read-out: Percentage SIRT2 inhibition (%).
[12] abbreviates: compound 50 μM, preliminary screening.
The mark [13] stands for this setting: dose-response, 50 μM, read-out: % Inhibition of SIRT2.

As usually defined, the inhibition is the relative decrease from the control value, in per cent. Consider `CCOC(=O)c1ccc2[nH]c(-c3ccc(O)c(OC)c3)nc2c1` [Compound V3], for which the inhibition at 50 µM in series [1] (setting [11]) is 61.9 ± 12%.
A word on the IC50: it is the concentration at which inhibition is half-maximal. On to `N.N.[Cl][Pt][Cl]` [Cisplatin, reference compound], for which the IC50 in [2] was 8.24 ± 0.86 µM; in series [3], 200 µM; in [4], 1.85 ± 0.42 µM; in series [5] it was 15.1 ± 1.05 µM; in [6] (72 h), 3.54 ± 0.18 µM; in series [7] it was 15 µM. In series [2], the “HCT116 Selectivity Index (SI)” value is listed as 0.43. In series [4] (from IC50 values of Table 2), the “sensitivity in H103 relative to H314” value was determined as 8 fold. For the same molecule, in series [4], the “H103 Selectivity Index (SI)” value is reported as 1.91. The “H314 Selectivity Index (SI)” value in series [5] worked out at 0.23.
On to `CCOC(=O)c1ccc2[nH]c(-c3ccc(OC)c(OC)c3)nc2c1` [Compound V8], for which, in [1] (setting [11]), the inhibition at 50 µM worked out at 25.5 ± 12.9%.
Regarding `CCOC(=O)c1ccc2[nH]c(-c3ccccc3O)nc2c1` [Compound V7], the IC50 was 13.3 ± 2.52 µM in series [2] (Homo sapiens, HCT-116); 11.6 ± 1.04 µM in series [4] (Homo sapiens, H103); 16.7 ± 1.13 µM in series [5]; 6.4 µM in series [1]; 44.4 ± 3.03 µM in series [6] (Homo sapiens, HEK293, 72 h). Besides, in series [2], the “HCT116 Selectivity Index (SI)” value is recorded as 3.34. Further, the “H103 Selectivity Index (SI)” value in [4] is recorded as 3.81. In addition, in series [5], the “cytotoxic effect in preliminary screening, H314” value (from here on “cytotoxic effect”) was “highly significant effects”. In series [5], the “H314 Selectivity Index (SI)” value turned out to be 2.66. Also, the “Percentage SIRT2 inhibition (%)” value in series [1] (setting [12]) is reported as “complete inhibition of enzymatic activity”. Moreover, the inhibition at 50 µM in series [1] (setting [11]) was greater than 95%; in series [1] (setting [13]) it was 100 ± 3%. Further, the inhibition at 1 µM in series [1] (dose-response) came to 0.2 ± 5.8%. The inhibition at 3 µM in [1] (dose-response) was found to be 32.8 ± 2.8%. In addition, in [1] (dose-response), the inhibition at 10 µM turned out to be 66.1 ± 7.1%. In addition, the inhibition at 25 µM in series [1] (dose-response) was 81.3 ± 3.2%. Moreover, the “molar extinction coefficient (molar absorptivity ε)” value in [8] (in DMSO, absorbance at 326 nm) is 34,477 M^−1 cm^−1 and 34 477 M^−1 cm^−1. Further, in series [8] (in DMSO, λex 326 nm, λem 492 nm, versus quinine sulfate), the “quantum yield Φ” value was determined as 26%. The “Stokes shift Δλ” value in [8] (λex 326 nm, λem 492 nm) came to 166 nm.
On to `C=C[C@H]1C[N@@]2CC[C@H]1C[C@H]2[C@H](O)c1ccnc2ccc(OC)cc12` [quinine sulfate], for which the “quantum yield of reference” value in [9] was 54.6%.
In the case of `CCOC(=O)c1ccc2[nH]c(-c3ccc4c(c3)OCO4)nc2c1` [BZD9Q1, reference compound], the IC50 in [2] (Homo sapiens, HCT-116) was 11.5 ± 2.3 µM; in series [5], greater than 100 µM; in [6] (Homo sapiens, HEK293, 72 h) it was 18.4 ± 2.95 µM; in series [10], 5.83 µM. Further, the “HCT116 Selectivity Index (SI)” value in series [2] was 1.60. In addition, in series [4], the “H103 Selectivity Index (SI)” value was 3.15.
With `CCOC(=O)c1ccc2[nH]c(-c3cccc(OC)c3)nc2c1` [Compound V5], the IC50 in series [2] (Homo sapiens, HCT-116) turned out to be 11.2 ± 3.14 µM; in series [4] (Homo sapiens, H103), 22.8 ± 3.84 µM; in series [5], 31.7 ± 1.27 µM; in series [6] (Homo sapiens, HEK293, 72 h), 45.6 ± 2.18 µM. For the same molecule, the “HCT116 Selectivity Index (SI)” value in series [2] stood at 4.08. Moreover, in series [4], the “H103 Selectivity Index (SI)” value is reported as 2.00. Also, the “cytotoxic effect” value in series [5] is reported as “highly significant effects”. In series [5], the “H314 Selectivity Index (SI)” value is recorded as 1.44. For the same molecule, in [1] (setting [12]), the “Percentage SIRT2 inhibition (%)” value is recorded as “no SIRT2 inhibition”.
Turning to `CCOC(=O)c1ccc2[nH]c(-c3ccc(O)c(O)c3)nc2c1` [Compound V9], the IC50 in series [2] (Homo sapiens, HCT-116) is 16.6 ± 3.52 µM; in [4] (Homo sapiens, H103), greater than 50 µM; in series [5], 37.8 ± 1.81 µM; in series [6] (Homo sapiens, HEK293, 72 h) it was 51.8 ± 5.65 µM. Also, the “HCT116 Selectivity Index (SI)” value in [2] is 3.13. Besides, the “cytotoxic effect” value in [5] is given as “highly significant effects”. In addition, the “H314 Selectivity Index (SI)” value in series [5] was determined as 1.37. For the same molecule, the inhibition at 50 µM in series [1] (setting [11]) was determined as 39.3 ± 7.3%.
Regarding `CCOC(=O)c1ccc2[nH]c(-c3cccc(O)c3)nc2c1` [Compound V1], in series [1] (setting [11]), the inhibition at 50 µM worked out at 25.4 ± 11.8%.
`CCOC(=O)c1ccc2[nH]c(-c3ccc(OC)c(O)c3)nc2c1` [Compound V4]: the “Percentage SIRT2 inhibition (%)” value in series [1] (setting [12]) is listed as “no SIRT2 inhibition”.
Turning to `CCOC(=O)c1ccc2[nH]c(-c3ccc(O)cc3O)nc2c1` [Compound V2], the “Percentage SIRT2 inhibition (%)” value in series [1] (setting [12]) was “complete inhibition of enzymatic activity”. In [1] (setting [11]), the inhibition at 50 µM was greater than 95%. For the same molecule, in series [1] (dose-response), the inhibition at 1 µM worked out at 19.4 ± 2.4%, the inhibition at 3 µM amounted to 29.5 ± 6.6%, the inhibition at 10 µM worked out at 44.5 ± 0.2% and the inhibition at 25 µM came out at 59.8 ± 0.1%. For the same molecule, the inhibition at 50 µM in series [1] (setting [13]) is 77 ± 0.1%. Also, the IC50 in series [1] came to 10.8 µM.
With `CCOC(=O)c1ccc2[nH]c(-c3ccccc3OC)nc2c1` [Compound V6], the “Percentage SIRT2 inhibition (%)” value in series [1] (setting [12]) is “weakest inhibitory effect”. For the same molecule, the inhibition at 50 µM in [1] (setting [11]) was determined as 11.8 ± 11.4%.
